Laboratory results taken from US6905865B1, “Detection of a gene, vatE, encoding an acetyltransferase inactivating streptogramin” (Institut Pasteur, priority 1999, dated 2005).

Legend:
[1] = test system: S. aureus RN4220 [pOX7]; assay: MIC of pristinamycin IIA for S. aureus RN4220 carrying the shuttle vector pOX7; type: cell-based; details: Staphylococcus aureus; S. aureus recipient RN4220 with empty shuttle vector pOX7
Method: (§1) A DNA fragment of 858 nt containing vatE (nt 104 to nt 961, Accession No. AF153312) was amplified from pIP1798 and inserted between the EcoRI and SmaI sites of the shuttle vector, pOX7 (11). The resulting plasmid, pIP1801, introduced by electroporation in the S. aureus recipient, RN4220 (15), conferred resistance to pristinamycin IIA (MICs: 2 μg/ml for RN4220 [pOX7] and 8 μg/ml for RN4220 [pIP1801]).

[2] = test system: S. aureus RN4220 [pIP1801]; assay: MIC of pristinamycin IIA for S. aureus RN4220 carrying pIP1801 (vatE); type: cell-based; details: Staphylococcus aureus; S. aureus recipient RN4220 with pIP1801 (pOX7 carrying vatE), introduced by electroporation
Method: as §1

CC1=C\[C@@H](O)CC(=O)Cc2nc(co2)C(=O)N2CCC=C2C(=O)O[C@H](C(C)C)[C@H](C)/C=C/C(=O)NC\C=C\1 [pristinamycin IIA]
MIC [1]: 2 µg/mL
MIC [2]: 8 µg/mL
